In article PMC2248166, “Quantitative peptide binding motifs for 19 human and mouse MHC class I molecules derived using positional scanning combinatorial peptide libraries” (Immunome Research, 2008):

What follows are sequences tested against HLA A*3001 (Homo sapiens, UniProt P04439, D140H/D185E/E176W/F33S/G80R/H175R/K168Q/R138E/R41S) (assay: biochemical).
Type: binding

Sequence | Normalized average relative binding affinity(ARB)
XXXXXMXXX [3064.0111] | 0.18
XXXXXNXXX [3064.0112] | 0.13
XXXXXPXXX [3064.0113] | 0.19
XXXXXQXXX [3064.0114] | 0.21
XXXXXRXXX [3064.0115] | 0.21
XXXXXSXXX [3064.0116] | 0.44

The sequences below were run against HLA A*3201 (Homo sapiens, UniProt P04439, A270S/D101S/D185E/E176V/E277Q/F133L/G103R/G107R/G231S/H175R/I121M/I218V/I322F/K168Q/L105A/L300P/L318F/M331R/P208A/P217A/Q94H/R106L/R138Q/S129P/T104I/T323A/T345S/V100E/V321M/V358M) (assay: biochemical).
Type: binding

Sequence | Normalized average relative binding affinity(ARB)
XXXXXMXXX [3064.0111] | 0.44
XXXXXNXXX [3064.0112] | 0.73
XXXXXPXXX [3064.0113] | 0.27
XXXXXQXXX [3064.0114] | 0.15
XXXXXRXXX [3064.0115] | 0.36
XXXXXSXXX [3064.0116] | 0.80

These sequences were tested against HLA A*6802 (Homo sapiens, UniProt P04439, A269V/D140Y/D185E/E176V/E277Q/E87N/F33Y/G231S/I121R/I166T/I218V/L180W/L300P/L318F/N151K/P208A/P217A/Q86R/R138H/R169H/S129P/T345S/V36M) (assay: not given).
Type: binding

Sequence | Normalized average relative binding affinity(ARB)
XXXXXMXXX [3064.0111] | 0.14
XXXXXNXXX [3064.0112] | 0.45
XXXXXPXXX [3064.0113] | 0.57
XXXXXQXXX [3064.0114] | 0.085
XXXXXRXXX [3064.0115] | 0.43
XXXXXSXXX [3064.0116] | 0.57

These sequences were tested against HLA B*0801 (Homo sapiens, UniProt P01889, A93T/A95T/D138N/E176V/E187T/K202T/Q94N/R180D/S35A/V36M/Y33D/Y91F) (assay: biochemical).
Type: binding

Sequence | Normalized average relative binding affinity(ARB)
XXXXXMXXX [3064.0111] | 0.031
XXXXXNXXX [3064.0112] | 0.039
XXXXXPXXX [3064.0113] | 0.039
XXXXXQXXX [3064.0114] | 0.031
XXXXXRXXX [3064.0115] | 0.15
XXXXXSXXX [3064.0116] | 0.052

The sequences below were run against HLA B*1501 (Homo sapiens, UniProt P01889, A329T/A93T/A95T/C349S/D201E/D98Y/E187L/E204Q/E69M/E70A/K202T/N87E/Q94N/R155S/R180W/S121R/S35A/S48A/V306I/V36M/Y140S/Y91S) (assay: biochemical).
Type: binding

Sequence | Normalized average relative binding affinity(ARB)
XXXXXMXXX [3064.0111] | 0.44
XXXXXNXXX [3064.0112] | 0.26
XXXXXPXXX [3064.0113] | 0.11
XXXXXQXXX [3064.0114] | 0.21
XXXXXRXXX [3064.0115] | 0.13
XXXXXSXXX [3064.0116] | 0.35

The sequences below were run against HLA B*1503 (Homo sapiens, UniProt P01889, A329T/A93T/A95T/C349S/D201E/D98Y/E187L/E204Q/K202T/N87E/Q94N/R155S/R180L/S121R/S35A/V306I/V36M/Y140S/Y91S) (assay: biochemical).
Type: binding

Sequence | Normalized average relative binding affinity(ARB)
XXXXXMXXX [3064.0111] | 0.43
XXXXXNXXX [3064.0112] | 0.0067
XXXXXPXXX [3064.0113] | 0.47
XXXXXQXXX [3064.0114] | 0.53
XXXXXRXXX [3064.0115] | 0.51
XXXXXSXXX [3064.0116] | 0.51

What follows are sequences tested against HLA B*3501 (Homo sapiens, UniProt P01889, A329T/A93T/A95T/C349S/D201E/D98Y/E176V/E187L/E204Q/E69T/I218V/K202T/L119I/Q94N/R155S/R180L/S121R/S35A/S48A/T118I/V127L/V306I/V36M/Y140S/Y91F) (assay: not given).
Type: binding

Sequence | Normalized average relative binding affinity(ARB)
XXXXXMXXX [3064.0111] | 0.18
XXXXXNXXX [3064.0112] | 0.16
XXXXXPXXX [3064.0113] | 0.14
XXXXXQXXX [3064.0114] | 0.12
XXXXXRXXX [3064.0115] | 0.088
XXXXXSXXX [3064.0116] | 0.33

These sequences were tested against HLA B*5101 (Homo sapiens, UniProt P01889, A329T/A93T/A95T/C349S/D138N/D201E/D98Y/E187L/E204Q/E69T/G107R/I218V/K202T/L105A/L119W/N104I/Q94N/R106L/R155S/R180L/S101N/S121T/S35A/S48A/V306I/V36M/Y195H/Y91F) (assay: not given).
Type: binding

Sequence | Normalized average relative binding affinity(ARB)
XXXXXMXXX [3064.0111] | 0.52
XXXXXNXXX [3064.0112] | 0.40
XXXXXPXXX [3064.0113] | 0.067
XXXXXQXXX [3064.0114] | 0.39
XXXXXRXXX [3064.0115] | 0.27
XXXXXSXXX [3064.0116] | 0.32

Each sequence was assayed against HLA B*5301 (Homo sapiens, UniProt P01889, A329T/A93T/A95T/C349S/D201E/D98Y/E176V/E187L/E204Q/E69T/G107R/I218V/K202T/L105A/L119I/N104I/Q94N/R106L/R155S/R180L/S101N/S121R/S35A/S48A/T118I/V127L/V306I/V36M/Y140S/Y91F) (assay: not given).
Type: binding

Sequence | Normalized average relative binding affinity(ARB)
XXXXXMXXX [3064.0111] | 0.23
XXXXXNXXX [3064.0112] | 0.13
XXXXXPXXX [3064.0113] | 0.15
XXXXXQXXX [3064.0114] | 0.13
XXXXXRXXX [3064.0115] | 0.095
XXXXXSXXX [3064.0116] | 0.17

Each sequence was assayed against HLA B*5401 (Homo sapiens, UniProt P01889, A329T/C349S/D138N/D201E/E176V/E187T/E204Q/E69G/I76V/K202T/L119W/R155S/R180L/S121T/S35A/S48A/V127L/V306I/V36M/Y140L) (assay: not given).
Type: binding

Sequence | Normalized average relative binding affinity(ARB)
XXXXXMXXX [3064.0111] | 0.43
XXXXXNXXX [3064.0112] | 0.29
XXXXXPXXX [3064.0113] | 0.15
XXXXXQXXX [3064.0114] | 0.11
XXXXXRXXX [3064.0115] | 0.11
XXXXXSXXX [3064.0116] | 0.18

Each sequence was assayed against HLA B*5801 (Homo sapiens, UniProt P01889, A329T/C349S/D201E/D98Y/E176V/E187L/E204Q/E69T/G107R/I218V/I90N/K202T/L105A/L119I/N104I/N87E/Q89R/Q94S/R106L/R155S/R180L/R86G/S101N/S121R/S35A/S48A/T118I/V127L/V306I/V36M/Y140S/Y91M) (assay: not given).
Type: binding

Sequence | Normalized average relative binding affinity(ARB)
XXXXXMXXX [3064.0111] | 0.41
XXXXXNXXX [3064.0112] | 0.027
XXXXXPXXX [3064.0113] | 0.20
XXXXXQXXX [3064.0114] | 0.57
XXXXXRXXX [3064.0115] | 0.25
XXXXXSXXX [3064.0116] | 0.45

Each sequence was assayed against HLA B*5802 (Homo sapiens, UniProt P01889, A329T/C349S/D201E/D98Y/E176V/E187L/E204Q/E69T/G107R/I218V/I90N/K202T/L105A/N104I/N87E/Q89R/Q94S/R106L/R155S/R180L/R86G/S101N/S121W/S35A/S48A/V127L/V306I/V36M/Y140S/Y91M) (assay: not given).
Type: binding

Sequence | Normalized average relative binding affinity(ARB)
XXXXXMXXX [3064.0111] | 0.24
XXXXXNXXX [3064.0112] | 1.0
XXXXXPXXX [3064.0113] | 0.39
XXXXXQXXX [3064.0114] | 0.46
XXXXXRXXX [3064.0115] | 0.36
XXXXXSXXX [3064.0116] | 0.055

The sequences below were run against H-2 D^b (Mus musculus, UniProt P01899) (assay: not given).
Type: binding

Chain of H-2 D^b (P01887 21-119): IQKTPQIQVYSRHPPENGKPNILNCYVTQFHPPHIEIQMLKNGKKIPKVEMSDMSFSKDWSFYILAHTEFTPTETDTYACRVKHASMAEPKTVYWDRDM
Chain of H-2 D^b (P01899 25-362): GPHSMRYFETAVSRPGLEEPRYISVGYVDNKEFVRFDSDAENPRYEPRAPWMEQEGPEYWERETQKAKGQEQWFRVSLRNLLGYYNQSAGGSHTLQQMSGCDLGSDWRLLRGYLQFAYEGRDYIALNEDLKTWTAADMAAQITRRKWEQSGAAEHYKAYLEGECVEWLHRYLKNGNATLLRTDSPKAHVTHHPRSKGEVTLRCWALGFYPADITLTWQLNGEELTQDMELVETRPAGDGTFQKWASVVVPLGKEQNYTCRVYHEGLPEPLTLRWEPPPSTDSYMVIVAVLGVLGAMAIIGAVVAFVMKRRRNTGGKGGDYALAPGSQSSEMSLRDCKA

Sequence | Normalized average relative binding affinity(ARB)
XXXXXMXXX [3064.0111] | 0.52
XXXXXNXXX [3064.0112] | 0.56
XXXXXPXXX [3064.0113] | 0.23
XXXXXQXXX [3064.0114] | 0.55
XXXXXRXXX [3064.0115] | 0.50
XXXXXSXXX [3064.0116] | 0.70

The sequences below were run against H-2 D^d (Mus musculus, UniProt P01900) (assay: not given).
Type: binding

Chain of H-2 D^d (P01900 whole entry, looked up): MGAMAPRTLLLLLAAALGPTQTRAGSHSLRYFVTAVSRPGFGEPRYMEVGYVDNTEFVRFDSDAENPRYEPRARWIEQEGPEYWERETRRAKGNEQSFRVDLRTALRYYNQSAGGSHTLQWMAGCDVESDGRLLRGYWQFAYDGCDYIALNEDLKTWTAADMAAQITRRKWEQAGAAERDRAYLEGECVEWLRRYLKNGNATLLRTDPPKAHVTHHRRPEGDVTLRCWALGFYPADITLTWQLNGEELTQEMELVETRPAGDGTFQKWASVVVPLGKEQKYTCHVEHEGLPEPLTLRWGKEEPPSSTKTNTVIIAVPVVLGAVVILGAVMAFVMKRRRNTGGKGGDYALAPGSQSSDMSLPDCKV

Sequence | Normalized average relative binding affinity(ARB)
XXXXXMXXX [3064.0111] | 0.48
XXXXXNXXX [3064.0112] | 0.39
XXXXXPXXX [3064.0113] | 0.094
XXXXXQXXX [3064.0114] | 0.51
XXXXXRXXX [3064.0115] | 0.42
XXXXXSXXX [3064.0116] | 0.63

What follows are sequences tested against H-2 K^d (Mus musculus, UniProt P01902) (assay: not given).
Type: binding

Chain of H-2 K^d (P01887 21-119): as the sequence (P01887 21-119) above
Chain of H-2 K^d (P01902 22-368): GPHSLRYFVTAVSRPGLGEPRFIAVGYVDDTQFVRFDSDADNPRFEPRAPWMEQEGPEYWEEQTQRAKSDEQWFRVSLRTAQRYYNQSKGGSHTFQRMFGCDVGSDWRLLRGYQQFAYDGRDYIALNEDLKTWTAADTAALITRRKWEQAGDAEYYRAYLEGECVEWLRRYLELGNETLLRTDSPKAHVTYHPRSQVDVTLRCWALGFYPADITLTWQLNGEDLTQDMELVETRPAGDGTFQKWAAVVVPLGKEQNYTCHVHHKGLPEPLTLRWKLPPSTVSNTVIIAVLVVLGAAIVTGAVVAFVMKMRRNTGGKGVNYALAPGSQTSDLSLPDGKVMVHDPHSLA

Sequence | Normalized average relative binding affinity(ARB)
XXXXXMXXX [3064.0111] | 0.31
XXXXXNXXX [3064.0112] | 0.22
XXXXXPXXX [3064.0113] | 0.15
XXXXXQXXX [3064.0114] | 0.19
XXXXXRXXX [3064.0115] | 1.0
XXXXXSXXX [3064.0116] | 0.25

These sequences were tested against H-2 K^k (Mus musculus, UniProt P04223) (assay: not given).
Type: binding

Chain of H-2 K^k (P01887 21-119): as the sequence (P01887 21-119) above
Chain of H-2 K^k (P04223 22-369): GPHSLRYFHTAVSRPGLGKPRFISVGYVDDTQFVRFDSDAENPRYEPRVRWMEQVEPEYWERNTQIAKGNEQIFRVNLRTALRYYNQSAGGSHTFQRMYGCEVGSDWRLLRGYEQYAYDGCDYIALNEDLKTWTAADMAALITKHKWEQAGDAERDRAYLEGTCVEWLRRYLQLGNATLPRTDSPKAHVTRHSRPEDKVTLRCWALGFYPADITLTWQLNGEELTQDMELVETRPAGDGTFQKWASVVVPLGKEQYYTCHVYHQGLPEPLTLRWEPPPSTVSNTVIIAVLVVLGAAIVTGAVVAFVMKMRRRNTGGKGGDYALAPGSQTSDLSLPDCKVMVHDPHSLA

Sequence | Normalized average relative binding affinity(ARB)
XXXXXMXXX [3064.0111] | 0.36
XXXXXNXXX [3064.0112] | 0.32
XXXXXPXXX [3064.0113] | 0.38
XXXXXQXXX [3064.0114] | 0.12
XXXXXRXXX [3064.0115] | 0.39
XXXXXSXXX [3064.0116] | 0.70
